pIC50: −log10 of the molar value.

Cyclophilin B (CypB), sequence (P23284 34-216): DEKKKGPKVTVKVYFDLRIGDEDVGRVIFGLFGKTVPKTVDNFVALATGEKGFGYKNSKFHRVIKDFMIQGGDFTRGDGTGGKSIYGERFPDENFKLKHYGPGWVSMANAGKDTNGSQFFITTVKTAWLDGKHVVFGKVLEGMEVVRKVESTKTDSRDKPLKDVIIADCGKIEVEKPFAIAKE

The first assay deals with Cyclophilin A (CypA) (Homo sapiens (Human), UniProt P62937). Put plainly: Cyclophilin PPIase enzymatic assay (chymotrypsin coupled), CypA. It counts as biochemical.
Cyclophilin A (CypA), sequence (P62937 whole entry): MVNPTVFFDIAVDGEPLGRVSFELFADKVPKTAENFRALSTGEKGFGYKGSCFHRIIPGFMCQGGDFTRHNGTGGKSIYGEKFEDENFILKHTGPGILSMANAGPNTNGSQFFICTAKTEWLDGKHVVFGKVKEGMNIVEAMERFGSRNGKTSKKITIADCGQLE
Conditions: not given
As to the method:
(§1) Cyclophilin A, B protein carrying a hexahistidine tag (His-Tag) at the C-terminus, were expressed in Escherichia coli and purified. Briefly, cultures of C41(DE3) cells were grown at 37° C. for ˜1 h until the culture reached an optical density of 0.6 at 600 nm, and induced with 1 mM isopropyl β-D-thiogalactoside for 4 h at 37° C. or overnight at 22° C. for cylophilin A and cyclophilin B, respectively. Cell pellets (1 L) were resuspended in a lysis buffer (20 mM NaH2PO4 (pH 7.8), 300 mM NaCl, 7 mM β-mercaptoethanol, 1 mg/ml lysozyme, 0.1 U/μl Desoxyribonuclease and complete protease inhibitor tablets (Roche)). The sonicated cell lysates were clarified by centrifugation at 10 000 g for 45 min at 4° C., chromatographed on a Ni-NTA column and washed with buffer: (20 mM NaH2PO4 (pH7.8), 300 mM NaCl, 50 mM imidazole, 7 mM β-mercaptoethanol, 10% glycerol). The bound protein was eluted in 1 ml fractions with buffer: (20 mM NaH2PO4 (pH7.8), 300 mM NaCl, 250 mM imidazole, 7 mM β-mercaptoethanol, 10% glycerol) and monitored by the Bradford colorimetric assay. The purity of each cyclophilin was determined by Coomassie-stained SDS-PAGE analysis.
(§2) The reaction was initiated by adding 20 μL of 3.2 mM peptide substrate (Suc-Ala-Ala-cis-Pro-Phe-pNA) in LiCl/TFE solution with rapid inversion. […] The final concentration of LiCl in the assay was 20 mM; TFE was present at a concentration of 4% (v/v). Absorbance readings were collected every 1 s by spectrophotometer. The inhibition assays of compounds were performed in the same manner as mentioned above. A 5 μL aliquot of the compounds in DMSO was added to the cyclophilin solution in the assay buffer. The assay was started by the addition of the substrate. Cyclosporine A was used as control in all measurement. The percentage inhibition of cyclophilin PPiase activity were calculated from slopes and values obtained represent an average of at least two independent measurements.
A word on the inhibition: it is the drop in the measured response relative to a control, in per cent. In the case of `Nc1ccc(CNC(=O)NCC(=O)N2CCCC2)cc1` [Compound F537, 1-(4-aminobenzyl)-3-(2-pyrrolidin-1-yl-2-oxoethyl)urea], the inhibition at 100 µM is 33.4%.

The assay is the same for the next values; noted with them: activity test at 100 μM on CypA.
For `Nc1ccc(CNC(=O)NCC(=O)N2CCCCC2C(=O)N2CCCC2)cc1` (stereo not drawn) [Compound F542], the “Inhibition (%)” value is recorded as 60.1%.

`Nc1ccc(CNC(=O)NCC(=O)N2CCCCC2)cc1` [Compound F543, 1-(4-aminobenzyl)-3-(2-oxo-2-(piperin-1-yl)ethyl)urea]: the “Inhibition (%)” value amounted to 27.7%.

The assay is the same for the next values; noted with them: activity test at 100 μM on CypA; read-out: Inhibition (%).
Regarding `CCOC(=O)CNC(=O)NCc1nc2ccccc2[nH]1` [Compound F538, ethyl 2-(3-((1H-benzo[d]imidazol-2-yl)methyl)ureido)acetate], the inhibition at 100 µM was determined as 15.5%.

In the case of `Nc1ccc(CNC(=O)NCC(=O)N2CCCC(O)C2)cc1` (stereo not drawn) [Compound F540, 1-(4-aminobenzyl)-3-(2-(3-hydroxy-piperidin-1-yl)-2-oxoethyl)urea], the inhibition at 100 µM was found to be 32.6%.

A further assay has as its target Cyclophilin B (CypB) (Homo sapiens (Human), UniProt P23284). Nature of the assay: Cyclophilin PPIase enzymatic assay (chymotrypsin coupled), CypB. The assay is classed as biochemical.
Conditions: not given
Here is the method: as §1, §2
For `CCOC(=O)CNC(=O)NCc1ccc(F)cc1` [Compound F513, ethyl 2-(3-(4-fluorobenzyl)ureido)acetate], the inhibition at 100 µM was 23.3%.

For the compound `CCOC(=O)CNC(=O)NCc1cccc(C(F)(F)F)c1` [Compound F514, ethyl 2-(3-(3-trifluoromethylbenzyl)ureido)acetate], testing at 100 µM gave an inhibition of 19.5%.

Compound `CCOC(=O)CNC(=O)NCCNc1ccccc1` [Compound F515, ethyl 2-(3-(2-(phenylamino)ethyl)ureido)acetate] registered an inhibition at 100 µM of 18.2%.

In turn, `CCOC(=O)CNC(=O)NCCc1ccc(O)cc1` [Compound F517, ethyl 2-(3-(4-hydroxyphenylethyl)ureido)acetate] gave an inhibition at 100 µM of 20%.

The compound `CCOC(=O)CNC(=O)NCc1cc(Cl)cc(Cl)c1` [Compound F520, ethyl 2-(3-(3,5-dichlorobenzyl)ureido)acetate] returned an inhibition at 100 µM of 18.9%.

Regarding `CCOC(=O)CNC(=O)NCc1cccc2c1OCCO2` [Compound F525, ethyl 2-(3-((2,3-dihydrobenzo[b][1,4]dioxin-5-yl)methyl)ureido)acetate], the inhibition at 100 µM came to 21.6%.

Regarding `CCOC(=O)CNC(=O)NCc1cc(C)on1` [Compound F526, ethyl 2-(3-((5-methylisoxazol-3-yl)methyl)ureido)acetate], at 100 µM the inhibition was 21.2%.

The compound `CCOC(=O)CNC(=O)NCc1ccc(N)nc1` [Compound F536, ethyl 2-(3-((6-aminopyridin-3-yl)methyl)ureido)acetate] showed an inhibition at 100 µM of 47.6%.

Compound `Nc1ccc(CNC(=O)NCC(=O)N2CCCC2)cc1` [Compound F537, 1-(4-aminobenzyl)-3-(2-pyrrolidin-1-yl-2-oxoethyl)urea] had an inhibition at 100 µM of 24.5%.

Regarding `COC(=O)[C@H]1CCCN1C(=O)CNC(=O)NCc1ccc(N)cc1` [Compound F558, (R)-methyl 1-(2-(3-(4-aminobenzyl)ureido)acetyl)pyrrolidine-2-carboxylate], testing at 100 µM gave an inhibition of 25.9%.

In turn, `Nc1ccc(CNC(=O)NCC(=O)N2CCC(O)CC2)cc1` [Compound F561, 1-(4-aminobenzyl)-3-(2-(4-hydroxy-piperidin-1-yl)-2-oxoethyl)urea] showed an inhibition at 100 µM of 15.1%.

Take `COc1cccc(CNC(=O)CNC(=O)NCc2ccc(N)cc2)c1` [Compound F563, 2-(3-(4-aminobenzyl)ureido)-N-3-methoxybenzylacetamide]: the inhibition at 100 µM worked out at 16.4%.

In the case of `CCOC(=O)CNC(=O)NCc1c(F)cccc1NC(C)=O` [Compound F565, ethyl 2-(3-(2-acetamido-6-fluorobenzyl)ureido)acetate], the inhibition at 100 µM amounted to 34.5%.

In turn, `CCOC(=O)CNC(=S)NCc1ccc(N)nc1` [Compound F569, ethyl 2-(3-((6-aminopyridin-3-yl)methyl)thioureido)acetate] showed an inhibition at 100 µM of 17.1%.

`CCOC(=O)CNC(=O)NCc1ccc(O)cc1O` [Compound F572, ethyl 2-(3-(2,4-dihydroxybenzyl)ureido)acetate]: the inhibition at 100 µM is 27.6%.

As for `CCOC(=O)CNC(=O)NCc1ccc(O)cc1` [Compound F576, ethyl 2-(3-(4-hydroxybenzyl)ureido)acetate], the inhibition at 100 µM stood at 18.4%.

`Nc1ccc(CNC(=O)NCC(=O)N2CCCC2c2ccccn2)cn1` (stereo not drawn) [Compound F586, 1-((6-aminopyridin-3-yl)methyl)-3-(2-oxo-2-(2-(pyridin-2-yl)pyrrolidin-1-yl)ethyl)urea] registered an inhibition at 100 µM of 38.4%.

The compound `COc1ccccc1C1CCCN1C(=O)CNC(=O)NCc1ccc(N)nc1` (stereo not drawn) [Compound F587, 1-((6-aminopyridin-3-yl)methyl)-3-(2-(2-(2-methoxyphenyl)pyrrolidin-1-yl)-2-oxoethyl)urea] showed an inhibition at 100 µM of 99%.

In turn, `CSc1cccc(CN(C(=O)CNC(=O)NCc2ccc(N)nc2)C(C)C)c1` [Compound F592, 2-(3-((6-aminopyridin-3-yl)methyl)ureido)-N-isopropyl-N-(3-(methylthio)benzyl)acetamide] had an inhibition at 100 µM of 18.9%.

`Cc1noc(C2CCCN2C(=O)CNC(=O)NCc2ccc(N)nc2)n1` (stereo not drawn) [Compound F593, 1-((6-aminopyridin-3-yl)methyl)-3-(2-(2-(3-methyl-1,2,4-oxadiazol-5-yl)pyrrolidin-1-yl)-2-oxoethyl)urea] displayed an inhibition at 100 µM of 23.4%.

On to `CN(C(=O)CNC(=O)NCc1ccc(N)nc1)C1CCCCC1` [Compound F595, 2-(3-((6-aminopyridin-3-yl)methyl)ureido)-N-cyclohexyl-N-methylacetamide], for which the inhibition at 100 µM was 29.1%.

For `CN(C(=O)CNC(=O)NCc1ccc(N)nc1)c1ccc(F)cc1` [Compound F597, 2-(3-((6-aminopyridin-3-yl)methyl)ureido)-N-(4-fluorophenyl)-N-methylacetamide], the inhibition at 100 µM turned out to be 46.3%.

The compound `CCN(OCc1ccccc1)C(=O)CNC(=O)NCc1ccc(N)nc1` [Compound F599, 2-(3-((6-aminopyridin-3-yl)methyl)ureido)-N-(benzyloxy)-N-ethylacetamide] yielded an inhibition at 100 µM of 71.8%.

In turn, `Nc1ccc(CNC(=O)Nn2cnc3ccccc3c2=O)cc1` [Compound F600, 1-(4-aminobenzyl)-3-(4-oxoquinazolin-3(4H)-yl)urea] had an inhibition at 100 µM of 65.8%.

The assay is the same for the next values; noted with them: CypB.
In general, pIC50 refers to the IC50 on a negative log10 scale, so that one unit is a factor of ten. The low end stands for a large IC50, the high end for a small IC50. As for `Nc1ccc(CNC(=O)NCC(=O)N2CCCCC2C(=O)N2CCCC2)cc1` (stereo not drawn) [Compound F542], the pIC50 was 4.44.

`COc1ccccc1C1CCCN1C(=O)CNC(=O)NCc1ccc(N)nc1` (stereo not drawn) [Compound F587, 1-((6-aminopyridin-3-yl)methyl)-3-(2-(2-(2-methoxyphenyl)pyrrolidin-1-yl)-2-oxoethyl)urea] showed a pIC50 of 5.28.

Still in this assay, the particulars now being: activity test at 100 μM on CypB.
“2-(3-(4-aminobenzyl)ureido)-N-2-phenyl-ethyl-N-methylacetamide [Compound F551]”: the “Inhibition (%)” value is reported as 20.8%.

In the case of `CCOC(=O)CNC(=O)NCc1cccc2ccccc12` [Compound F490, ethyl 2-(3-((napht-1-yl)methyl)ureido)acetate], the “Inhibition (%)” value is on record as 33.1%.

For `CCOC(=O)CNC(=O)NCc1cccc(-c2ncccn2)c1` [Compound F524], the “Inhibition (%)” value is on record as 15.4%.

Consider `CCOC(=O)CNC(=O)NCc1ccccc1-c1ccco1` [Compound F528], for which the “Inhibition (%)” value was determined as 38.9%.

Turning to `Nc1ccc(CNC(=O)NCC(=O)N2CCCCC2C(=O)N2CCCC2)cc1` (stereo not drawn) [Compound F542], the “Inhibition (%)” value came out at 58.5%.

In the case of `Nc1ccc(CNC(=O)NCC(=O)N2CCCCC2)cc1` [Compound F543, 1-(4-aminobenzyl)-3-(2-oxo-2-(piperin-1-yl)ethyl)urea], the “Inhibition (%)” value is 37.5%.

In the case of `Nc1ccc(CNC(=O)NCC(=O)NCc2cccc(CN3CCOCC3)c2)cc1` [Compound F559], the “Inhibition (%)” value stood at 21.9%.

As to `Nc1ccc(CNC(=O)NCC(=O)NCc2cccc(-n3cncn3)c2)cc1` [Compound F562, 2-(3-(4-aminobenzyl)ureido)-N-(3-(1H,1,2,4-triazol-1-yl)benzyl)acetamide], the “Inhibition (%)” value turned out to be 28.0%.

For `CCOC(=O)CNC(=O)NCc1ccc(N)c2ccccc12` [Compound F577, ethyl 2-(3-((4-aminonapht-1-yl)methyl)ureido)acetate], the “Inhibition (%)” value is 47.3%.

As for `Nc1ccc(CNC(=O)NCC(=O)N2CCCO2)cn1` [Compound F585, 1-((6-aminopyridin-3-yl)methyl-3-(2-isoxazolidin-2-yl)-2-oxoethyl)urea], the “Inhibition (%)” value is 35.0%.

With `CC(C)N(Cc1cccc2c1OCO2)C(=O)CNC(=O)NCc1ccc(N)nc1` [Compound F590, 1-(((6-aminopyridin-3-yl)methyl)ureido)-N-(benzo[d][1,3]dioxol-4-ylmethyl)-N-isopropylacetamide], the “Inhibition (%)” value was determined as 18.2%.

In the case of `Nc1ccc(CNC(=O)NCC(=O)N2CCOCC2)cn1` [Compound F594], the “Inhibition (%)” value worked out at 37.0%.

Regarding `Nc1ccc(CNC(=O)Nc2cnc3sccn3c2=O)cn1` [Compound F596, 1-((6-aminopyridin-3-yl)methyl)-3-(5-oxo-5H-thiazolo[3,2-c]pyrimidin-6-yl)urea], the “Inhibition (%)” value is listed as 19.8%.

“(S)-1-((6-aminopyridin-3-yl)methyl)-3-(2-oxo-2-(2-(pyridin-3-yl)pyrrolidin-1-yl)ethyl)urea [Compound F588]”: the “Inhibition (%)” value stood at 23.2%.

The values are drawn from patent US8901295B2 (Institut National de la Sante et de la Recherche Medicale …, priority 2009, dated 2014).
